Results as given in patent US10618900B2, “5-aromatic alkynyl substituted benzamide compound and preparation method, pharmaceutical composition, and use thereof” (SHANGHAI INSTITUTE OF MATERIA MEDICA, CHINESE ACADEMY OF …, priority 2015, dated 2020).
pIC50: −log10 of the molar value.

Assays:
mice [1] = assay: Head twitches test (5-HTP induced); assay type: in vivo; conditions: positive control, FIG. 2
Description: Experimental principle: Model Head Thrust Test (HTT) is first raised by Corne et al. in 1963, head twitches syndrome caused by 5-HT receptor excitement may be mediated through the 5-HT2 receptor. The head twitches behavior induced by 5-HTP in mice is more sensitive to antidepressants with different action mechanisms, such as citalopram, fluvoxamine and other 5-HT retake inhibitors, desipramine, maprotiline, nomifensine and other NA retake inhibitors and imipramine acting on both 5-HT and NA system.
Experimental method: 20-24 g male mice were selected. 3 h before the test, 100 mg/kg pargyline was intraperitoneal injected and then intraperitoneal injected with test drugs or saline. 5-HTP (5 mg/kg, ip) was injected 30 min later. After 10 min, the observation was started and the number of mice head twitches in 6 min was recorded. The numbers of the head twitches of experimental group and the saline control group were compared.

mice [2] = assay: Mouse tail suspension experiment; assay type: in vivo; conditions: positive control, FIG. 1
Description: Experimental principle: Tail Suspension Test (TST) is a classic method which can quickly evaluate the efficacy of antidepressant drugs, excitement drugs, and sedative drugs. The principle is to use the status that the mouse give up struggle and enter the unique depression status after the tail was suspended and the attempt to escape was failed.
Experimental method: 20-24 g male mice were selected and the site at 2 cm part from the end of the tail was attached to a horizontal stick, so that the animal entered inverted state, and it's head was about 5 cm from the table, and boards were hung on both sides to separate the animal's sight. The immobility time of the administration group and the control group within 6 min were compared.

ICR mice = assay: Mouse forced swimming experiment; assay type: in vivo; conditions: positive control, 10 mg/kg intraperitoneal, later 4 min of 6 min
Description: Experimental principle: The principle of Mouse Forced Swimming Test (FST) is to allow the mouse to swim in a limited space from which it can not escape, thus inducing animal to non-movement state which reflects the animal's desperate behavior.
Experimental animals: ICR mice, 20-28 g, both male and female
Sample treatment: The test compounds were ground with 1% CMC (sodium carboxymethyl cellulose) aqueous solution to prepare a homogeneous solution. In vivo dose was 5 mg/kg, 10 mg/kg and 20 mg/kg, the compound was oral administered at 0.1 ml/10 g volume/body weight. Positive control drugs (amitriptyline and fluoxetine) were dissolved with 0.9% saline, in vivo dose was 10 mg/kg, administered by intraperitoneal injection at 0.1 ml/10 g volume/body weight. (Note: the mice were fasted for 8 h and drinked water ad libitum before the compound was given.)
Experimental Methods: mice were grouped randomly. […] On the second day of the test, the mice were orally administered the compound. After 1 hour (0.5 hours after intraperitoneal injection), the mice were then put in water to record the immobility time in the later 4 min of 6 min.

mGluR1 = mGluR1 (Homo sapiens (Human), UniProt Q13255); assay: mGluR5/1 selectivity test, HEK293/mGluR1 cell line, Fluo-8 calcium; assay type: cell-based; conditions: for pIC50: HEK293/mGluR1 cell line; for mGluR5/mGluR1: selectivity ratio of IC50 values
Chain of mGluR1 (Q13255 19-1194): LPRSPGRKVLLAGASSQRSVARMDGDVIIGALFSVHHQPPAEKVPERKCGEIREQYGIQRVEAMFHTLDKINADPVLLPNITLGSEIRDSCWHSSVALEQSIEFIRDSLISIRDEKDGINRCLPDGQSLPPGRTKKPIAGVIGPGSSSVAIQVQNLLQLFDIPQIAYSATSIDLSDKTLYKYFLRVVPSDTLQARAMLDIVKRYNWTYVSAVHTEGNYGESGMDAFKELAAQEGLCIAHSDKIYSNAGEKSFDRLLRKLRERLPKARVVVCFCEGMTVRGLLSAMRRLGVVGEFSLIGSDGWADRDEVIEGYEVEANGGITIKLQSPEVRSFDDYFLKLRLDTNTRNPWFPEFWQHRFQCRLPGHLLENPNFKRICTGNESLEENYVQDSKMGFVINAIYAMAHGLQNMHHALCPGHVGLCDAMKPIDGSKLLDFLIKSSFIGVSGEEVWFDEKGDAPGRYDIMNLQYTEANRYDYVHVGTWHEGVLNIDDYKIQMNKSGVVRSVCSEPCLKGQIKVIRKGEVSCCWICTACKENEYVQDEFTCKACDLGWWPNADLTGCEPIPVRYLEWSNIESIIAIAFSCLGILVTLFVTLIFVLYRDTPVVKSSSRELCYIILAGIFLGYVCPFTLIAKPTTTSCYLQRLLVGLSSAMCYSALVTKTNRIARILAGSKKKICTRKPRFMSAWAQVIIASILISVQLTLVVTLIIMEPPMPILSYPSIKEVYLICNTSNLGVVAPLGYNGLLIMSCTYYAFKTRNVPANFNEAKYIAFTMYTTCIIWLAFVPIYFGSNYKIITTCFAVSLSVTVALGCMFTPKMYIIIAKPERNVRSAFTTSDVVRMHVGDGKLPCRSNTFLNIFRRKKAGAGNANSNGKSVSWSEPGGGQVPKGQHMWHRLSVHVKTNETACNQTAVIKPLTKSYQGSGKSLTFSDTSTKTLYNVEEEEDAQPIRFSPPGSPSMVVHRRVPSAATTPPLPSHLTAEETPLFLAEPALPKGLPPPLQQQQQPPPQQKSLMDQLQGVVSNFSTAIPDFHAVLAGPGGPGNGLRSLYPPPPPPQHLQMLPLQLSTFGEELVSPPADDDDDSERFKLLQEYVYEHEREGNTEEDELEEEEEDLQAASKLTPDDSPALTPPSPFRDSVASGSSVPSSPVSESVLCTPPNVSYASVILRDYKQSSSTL
Description: Experimental material: HEK293/mGluR5 cell line, HEK293/mGluR1 cell line, Fluo-8 calcium ion fluorescent dye, positive control JNJ16259685

mGluR5 = mGluR5 (Homo sapiens (Human), UniProt P41594); assay: In vitro activity test for mGluR5, HDB Fluo-8 calcium fluorescence detection (FLIPR); assay type: cell-based; conditions: HEK293/mGluR5 cell line
Chain of mGluR5 (P41594 21-1212): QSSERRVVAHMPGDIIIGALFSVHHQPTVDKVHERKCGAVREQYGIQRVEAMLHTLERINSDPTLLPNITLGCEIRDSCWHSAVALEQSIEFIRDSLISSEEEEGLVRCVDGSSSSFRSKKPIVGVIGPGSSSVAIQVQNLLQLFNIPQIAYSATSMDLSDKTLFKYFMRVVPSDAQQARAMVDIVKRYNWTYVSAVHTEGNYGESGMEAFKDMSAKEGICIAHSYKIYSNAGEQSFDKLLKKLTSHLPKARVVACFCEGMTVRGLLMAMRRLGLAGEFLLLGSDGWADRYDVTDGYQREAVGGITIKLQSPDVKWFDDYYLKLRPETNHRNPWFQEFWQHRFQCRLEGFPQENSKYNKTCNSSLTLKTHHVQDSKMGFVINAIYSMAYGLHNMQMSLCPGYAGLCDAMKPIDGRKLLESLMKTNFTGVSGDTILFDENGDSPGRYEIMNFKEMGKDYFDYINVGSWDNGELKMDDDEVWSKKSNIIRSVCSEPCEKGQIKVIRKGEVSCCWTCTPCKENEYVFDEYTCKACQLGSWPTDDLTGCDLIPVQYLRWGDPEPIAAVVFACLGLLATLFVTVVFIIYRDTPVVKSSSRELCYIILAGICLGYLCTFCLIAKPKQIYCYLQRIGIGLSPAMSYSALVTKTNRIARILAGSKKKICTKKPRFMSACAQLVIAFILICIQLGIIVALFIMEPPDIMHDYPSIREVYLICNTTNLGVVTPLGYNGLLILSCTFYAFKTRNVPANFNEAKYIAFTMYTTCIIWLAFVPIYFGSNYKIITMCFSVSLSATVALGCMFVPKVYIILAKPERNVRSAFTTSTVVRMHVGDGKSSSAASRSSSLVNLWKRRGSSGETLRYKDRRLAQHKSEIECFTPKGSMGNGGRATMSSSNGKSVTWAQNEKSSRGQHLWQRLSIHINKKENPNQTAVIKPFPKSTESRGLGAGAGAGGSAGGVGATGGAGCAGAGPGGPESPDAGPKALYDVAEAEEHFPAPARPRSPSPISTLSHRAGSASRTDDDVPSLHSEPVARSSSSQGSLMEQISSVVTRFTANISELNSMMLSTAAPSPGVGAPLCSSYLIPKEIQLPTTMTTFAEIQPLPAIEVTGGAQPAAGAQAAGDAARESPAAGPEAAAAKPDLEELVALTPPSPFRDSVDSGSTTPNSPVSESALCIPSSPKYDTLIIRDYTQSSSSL
Description: Experimental instrument: FLIPR Tetra real-time fluorescence imaging analysis system
Experimental method: HDB Fluo-8 calcium fluorescence detection method
Experimental principle: HDB Fluo-8 calcium ion fluorescence detection method is a fast, simple and reliable fluorescence detection method of intracellular calcium concentration changes. The Fluo 8-AM fluorescent dye is an […] derivative of Fluo 8 which can easily penetrate the cell membrane into the cell by culture. The fluorescent dye into the cell will be hydrolyzed by intracellular esterase, the resulting Fluo 8 cannot easily pass through the lipid bimolecular membrane as a polar molecule, and will retain in the cell, and combine with calcium (Ca^2+) to produce fluoresces.
Cells expressing GPCR receptor protein (mGluR5) were first calibrated with a calcium ion sensitive fluorescent probe and then stimulated with the compound. After stimulation, the activation of the receptor lead to the calcium ion mobilization, and the fluorescent probe captures the calcium ion to induce the fluorescence signal. The signal can be read by a fluorescent plate reader. The fluorescent plate reader contains a sampling head for compound addition, thus enabling the change of the fluorescence value of the compound be read in real time. […]

pIC50 (mGluR5)	pIC50 (mGluR1)	mGluR5/mGluR1 (mGluR1)	SMILES	further results
			CNCCC(Oc1ccc(C(F)(F)F)cc1)c1ccccc1 (stereo not shown) [Fluoxetine, fluoxetine, reference compound]	number of head twitches (mice [1]): significantly improve; immobility time in the mouse tail suspension test (mice [2]): significantly improve; immobility time (%) Mean ± SEM (ICR mice): 84.79 ± 12.73%
			COC1CCC(C(=O)c2ccc3nc4c(cc3c2)CCCO4)CC1 (stereo not shown) [JNJ16259685, reference compound]	pIC50 (mGluR1; positive control): 7.04
7.86	< 4.00	>7194	O=C(Nc1ccc(F)cc1)c1cc(C#Cc2ccccn2)ccc1F [ZD001, 2-fluoro-5-(pyridin-2-ethynyl)-N-(4-fluorophenyl)benzamide]	
7.96	< 4.00	>9091	Cc1nc(C#Cc2ccc(F)c(C(=O)Nc3ccc(F)cc3)c2)cs1 [ZD004, 2-fluoro-N-(4-fluorophenyl)-5-((2-methyl-thiZaol-4-yl)ethynyl)benzamide]	
7.06			Cc1nc(C#Cc2cccc(C(=O)Nc3ccc(C#N)cc3)c2)cs1 [ZD010, N-(4-cyanophenyl)-3-((2-methylthiazol-4-yl)ethynyl)benzamide]	
7.49			Cc1nc(C#Cc2cccc(C(=O)N3CCc4ccccc4C3C)c2)cs1 (stereo not shown) [ZD011]	
7.83	< 4.00	>6757	Cc1nc(C#Cc2cccc(C(=O)Nc3ccccc3)c2)cs1 [ZD014]	
6.88			Cc1nc(C#Cc2cccc(C(=O)Nc3cccc(F)c3)c2)cs1 [ZD017, N-(3-fluorophenyl)-3-((2-methylthiazol-4-yl)ethynyl)benzamide]	
6.87			Cc1nc(C#Cc2cccc(C(=O)Nc3cccc(C#N)c3)c2)cs1 [ZD019, N-(3-cyanophenyl)-3-((2-methylthiazol-4-yl)ethynyl)benzamide]	
7.69	< 4.00	>4929	O=C(Nc1ccc(F)cc1)c1cc(C#Cc2ccccn2)ccc1Cl [ZD036, 2-chloro-N-(4-fluorophenyl)-5-(pyridin-2-ethynyl)benzamide]	
8.14	< 4.00	>13676	Cc1nc(C#Cc2ccc(Cl)c(C(=O)Nc3ccc(F)cc3)c2)cs1 [ZD037, 2-chloro-N-(4-fluorophenyl)-5-((2-methyl-thiazol-4-yl)ethynyl)benzamide]	
6.42			O=C(Nc1ccc(F)cc1)c1cc(C#Cc2ccncc2)ccc1F [ZD039, 2-fluoro-N-(4-fluorophenyl)-5-(pyridin-4-ethynyl)benzamide]	
6.98			Cc1ccc(C#Cc2ccccn2)cc1C(=O)Nc1ccc(F)cc1 [ZD040, N-(4-fluorophenyl)-2-methyl-5-(pyridin-2-ethynyl)benzamide]	
6.96			Cc1nc(C#Cc2ccc(C)c(C(=O)Nc3ccc(F)cc3)c2)cs1 [ZD041, N-(4-fluorophenyl)-2-methyl-5-((2-methyl-thiazol-4-yl)ethynyl)benzamide]	
7.71	< 4.00	>5155	O=C(Nc1cccnc1)c1cc(C#Cc2ccccn2)ccc1F [ZD042, 2-fluoro-5-(pyridin-2-ethynyl)-N-(pyridin-3-yl)benzamide]	
7.06			N#Cc1ccc(NC(=O)c2cc(C#Cc3ccccn3)ccc2F)cc1 [ZD044, N-(4-cyanophenyl)-2-fluoro-5-(pyridin-2-ethynyl)benzamide]	
7.27			Cc1nc(C#Cc2ccc(F)c(C(=O)Nc3ccc(C#N)cc3)c2)cs1 [ZD045, N-(4-cyanophenyl)2-fluoro-5-((2-methyl-thiazol-4-yl)ethynyl)benzamide]	
7.82	< 4.00	>6601	O=C(c1cc(C#Cc2ccccn2)ccc1F)N1CCc2ccccc2C1 [ZD046, (3,4-dihydro-isoquinolin-2(1H)-yl)(2-fluoro-5-(pyridin-2-ylethynyl)phenyl) methanone]	
8.18	< 4.00	>15044	Cc1nc(C#Cc2ccc(F)c(C(=O)N3CCc4ccccc4C3)c2)cs1 [ZD047, (3,4-dihydro-isoquinolin-2(1H)-yl)(2-fluoro-5-((2-methyl-thiazol-4-yl)ethynyl)phenyl)methanone]	
7.15			CC1c2ccccc2CCN1C(=O)c1cc(C#Cc2ccccn2)ccc1F (stereo not shown) [ZD048, (2-fluoro-5-(pyridin-2-ylethynyl)phenyl) (1-methyl-3,4-dihydro-isoquinolin-2(1H)-yl)methanone]	
7.42	< 4.00	>2632	Cc1nc(C#Cc2ccc(F)c(C(=O)N3CCc4ccccc4C3C)c2)cs1 (stereo not shown) [ZD049, (2-fluoro-5-((2-methyl-thiazol-4-yl)ethynyl)phenyl)(1-methyl-3,4-dihydro-isoquinolin-2(1H)-yl)methanone]	
			CN(C)CCC=C1c2ccccc2CCc2ccccc21 [amitriptyline, reference compound]	immobility time (%) Mean ± SEM (ICR mice): significantly improve; immobility time (%) Mean ± SEM (ICR mice; listed as CCAmitriptyline): 15.34 ± 5.96 %
